Source: patent US20220323594A1, “LIPIDATED CATIONIC PEPTIDE-PEG COMPOSITIONS FOR NUCLEIC ACID DELIVERY” (NUTCRACKER THERAPEUTICS, INC., priority 2019, published 2022)

What was measured:
[1] = MTT viability assay after treatment with Fluc mRNA/amino lipidated peptoid formulations; type: cell-based; conditions: human, HeLa cells
Outline: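 Viability relative to untreated cells came from the formazan read-out after 2 h with 1.5 mg/mL MTT and acidic isopropanol/Triton lysis. The MTT step followed an 8 h exposure to 100 ng/well Fluc mRNA in 5:1 peptoid:mRNA, 2% DMG-PEG2000 formulations and a further 48 h of culture.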

HeLa cells [2] = experiment: In vitro expression of firefly luciferase (Fluc) after treatment with Fluc mRNA/amino lipidated peptoid formulations, no PEG or 2% DMG-PEG2000; type: cell-based
Outline: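 HeLa cells received 100 ng/well Fluc mRNA complexed with amino lipidated peptoid at 5:1 peptoid:mRNA (w/w), either peptoid alone or with 2% w/w DMG-PEG2000. Expression quantified as RLU by luminescence at 6 and 24 h.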

Balb/c mice [3] = experiment: In vivo whole-body expression of Fluc following IV administration; conditions: Balb/c mice (n=3), IV tail-vein, 0.5 mg/kg, 5:1 peptoid:mRNA, 2% w/w DMG-PEG2000, 8 hours
Experimental: (§1) Amino lipidated peptoid delivery vehicles are effective for in vivo administration of Fluc mRNA to Balb/c mice (n=3) through multiple routes of administration. Briefly, representative amino lipidated peptoid/Fluc formulations (prepared at a 5:1 mass ratio of amino lipidated peptoid:mRNA unless noted, with 2% w/w DMG-PEG2000) were administered at a dose of 0.5 mg/kg via a tail-vein injection, and the resulting bioluminescence was quantified after 8 hours.

Balb/c mice [4] = experiment: In vivo organ-specific bioluminescence (biodistribution of Fluc) following IV administration; conditions: for Total Flux (p/s) Liver: dissected liver; for Total Flux (p/s) Lung: dissected lung; for Total Flux (p/s) Spleen: dissected spleen
Experimental: as §1, with “hours. […] Organ-specific bioluminescence was quantified by sacrificing the treated animal, dissecting out the organs of interest, and separately quantifying the resulting bioluminescence. […] FIG. 7C depicts a bar chart quantifying the organ-specific biodistribution of the formulations as a function of total photon flux.” for “hours.”

HeLa cells [5] = experiment: In vitro Fluc expression with variable peptoid:mRNA mass ratio, 2% DMG-PEG2000; type: cell-based; conditions: 24 h; for Observed Luciferase Expression (RLU) for Given Formulation Mass Ratio 2:1: 2% (w/w) DMG-PEG2000, peptoid:mRNA 2:1; for Observed Luciferase Expression (RLU) for Given Formulation Mass Ratio 3.5:1: 2% (w/w) DMG-PEG2000, peptoid:mRNA 3.5:1; for Observed Luciferase Expression (RLU) for Given Formulation Mass Ratio 5:1: 2% (w/w) DMG-PEG2000, peptoid:mRNA 5:1; for Observed Luciferase Expression (RLU) for Given Formulation Mass Ratio 7.5:1: 2% (w/w) DMG-PEG2000, peptoid:mRNA 7.5:1
Outline: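 HeLa cells exposed 24 hours to amino lipidated peptoid/Fluc mRNA formulations containing 2% w/w DMG-PEG2000 (relative to peptoid), across peptoid:mRNA mass ratios of 2:1 to 7.5:1. Read-out: average luciferase bioluminescence (RLU).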

Balb/c mice [6] = experiment: In vivo expression of Fluc following subcutaneous or intramuscular administration; conditions: for Total Flux (photons/sec) I.M. (0.05 mpk): mRNA 0.05 mpk; for Total Flux (photons/sec) S.C. (0.1 mpk): subcutaneous, mRNA 0.1 mpk
Experimental: In addition to IV administration, amino lipidated peptoids are also effective for local administration of mRNA through subcutaneous (S.C.) or intramuscular (I.M.) routes of administration. […] For these examples, mRNA was administered at a dose of 0.1 milligrams/kilogram (mpk) for subcutaneous or 0.05 mpk for intramuscular. In these cases, the overall expression was higher following intramuscular injections. […] Additional experiments were carried out to assess any variability in biodistribution as a function of the loading mass ratio of amino lipidated peptoid to the Fluc mRNA. FIG. 8A depicts a plot of total photon flux for formulations of amino lipidated peptoid compound 28 with 2% DMG-PEG 2000 and Fluc mRNA at different peptoid:mRNA ratios (1:1, 2:1, 5:1, 7.5:1 and 10:1).

[7] = mRNA encapsulation by fluorescence of Qubit RNA HS dye before and after lysis with Triton X-100; type: physicochemical; conditions: percentage of mRNA encapsulation; Fluc mRNA/peptoid formulation, 5:1 mass ratio
Outline: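 Encapsulation was measured by comparing Qubit RNA HS fluorescence of intact particles with that after Triton X-100 lysis. Particles were amino-lipidated cationic peptoids complexed with firefly luciferase mRNA at 5:1 peptoid:cargo by mass, mixed by pipetting.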

[8] = Dynamic light scattering (DLS) of mRNA/peptoid formulations: particle size and polydispersity; type: physicochemical; conditions: Fluc mRNA/peptoid formulation; for Size PDI: size polydispersity index by DLS, 5:1 mass ratio; for Size (nm): volume average particle size/diameter by DLS, 5:1 mass ratio peptoid:cargo
Outline: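 Volume-average particle diameter (nm) and PDI were measured by dynamic light scattering. Formulations combined peptoid diluted in ethanol with Fluc mRNA in pH 5.5 PBS at 1:3 by volume, mixed by pipetting at 5:1 peptoid:mRNA by mass.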

[9] = no PEG, peptoid:Fluc mRNA 5:1 w/w, 100 ng/well, 6 h of treatment
[10] = no PEG, peptoid:Fluc mRNA 5:1 w/w, 100 ng/well, 24 h of treatment
[11] = with 2% (w/w) DMG-PEG2000, peptoid:mRNA 5:1, 6 h after treatment
[12] = with 2% (w/w) DMG-PEG2000, peptoid:mRNA 5:1, 24 h after treatment

Structure (SMILES) | viability at 8 h, 500 ng/well ([1]; Relative Viability (%) 2% PEG) | viability at 8 h, 500 ng/well ([1]; Relative Viability (%) No PEG) | Luciferase Expression (RLU) 6 h (HeLa cells [2]; [9]) | Luciferase Expression (RLU) 24 h (HeLa cells [2]; [10]) | Luciferase Expression (RLU) 6 h (HeLa cells [2]; [11]) | Luciferase Expression (RLU) 24 h (HeLa cells [2]; [12]) | Total Flux (photons/sec), whole body (Balb/c mice [3]) | Total Flux (p/s) Liver (Balb/c mice [4]) | Total Flux (p/s) Lung (Balb/c mice [4]) | Total Flux (p/s) Spleen (Balb/c mice [4]) | Observed Luciferase Expression (RLU) for Given Formulation Mass Ratio 2:1 (HeLa cells [5]) | Observed Luciferase Expression (RLU) for Given Formulation Mass Ratio 3.5:1 (HeLa cells [5]) | Observed Luciferase Expression (RLU) for Given Formulation Mass Ratio 5:1 (HeLa cells [5]) | Observed Luciferase Expression (RLU) for Given Formulation Mass Ratio 7.5:1 (HeLa cells [5]) | Total Flux (photons/sec) I.M. (0.05 mpk) (Balb/c mice [6]; intramuscular) | Total Flux (photons/sec) S.C. (0.1 mpk) (Balb/c mice [6]) | % Encapsulation [7] | Size PDI [8] | Size (nm) [8] | also measured
CCCCCCCCCCN(CC(N)=O)C(=O)CN(CCCCCCCCCC)C(=O)CN(CCc1ccccc1)C(=O)CN(CCc1ccccc1)C(=O)CN(CCN)C(=O)CN(CCc1ccccc1)C(=O)CN(CCc1ccccc1)C(=O)CNCCN [Compound 10] | 108% | 101% | 1.88E+03 RLU | 7.01E+02 RLU | 2.21E+02 RLU | 2.43E+02 RLU | 1.04E+07 photons/sec | 5.85E+05 p/s | 5.14E+06 p/s | 2.17E+06 p/s | 5.57E+03 RLU | 1.23E+04 RLU | 3.51E+04 RLU | 3.57E+02 RLU | 9.01E+05 photons/sec | 1.40E+05 photons/sec | 92.6% | 0.009 | 157 nm | –
CCCCCCCCCCN(CC(N)=O)C(=O)CN(CCCCCCCCCC)C(=O)CN(CCCCCCCCCC)C(=O)CN(CCCCCCCCCC)C(=O)CN(CCc1ccccc1)C(=O)CN(CCc1ccccc1)C(=O)CN(CCCN)C(=O)CN(CCc1ccccc1)C(=O)CN(CCc1ccccc1)C(=O)CN(CCCN)C(=O)CN(CCc1ccccc1)C(=O)CN(CCc1ccccc1)C(=O)CNCCCN [Compound 28] | 92.7% | 85.4% | 9.59E+02 RLU | 4.97E+03 RLU | 8.33E+02 RLU | 6.94E+02 RLU | 2.36E+08 photons/sec | 1.10E+07 p/s | 7.08E+07 p/s | 2.16E+08 p/s | 1.26E+02 RLU | 1.93E+03 RLU | 5.75E+03 RLU | 2.07E+04 RLU | 7.23E+06 photons/sec | 1.65E+06 photons/sec | 52.0% | 0.085 | 308 nm | organ localization of Fluc expression (Balb/c mice [4]; organ-specific bioluminescence): preferential localization in other organs such as the spleen; expression after IM administration compared with Compound 8 (Balb/c mice [6]; intramuscular): significantly outperformed that example
